Experiment [1] addresses T1, CK2α (Homo sapiens, UniProt P68400).
T1 construct: CK2α (residues 2-329) was produced in Escherichia coli BL21 (DE3) for kinase activity screening; His6 (N, cleaved yes); made in house; host or cells: Escherichia coli BL21 (DE3)
T1 sequence (P68400 2-329): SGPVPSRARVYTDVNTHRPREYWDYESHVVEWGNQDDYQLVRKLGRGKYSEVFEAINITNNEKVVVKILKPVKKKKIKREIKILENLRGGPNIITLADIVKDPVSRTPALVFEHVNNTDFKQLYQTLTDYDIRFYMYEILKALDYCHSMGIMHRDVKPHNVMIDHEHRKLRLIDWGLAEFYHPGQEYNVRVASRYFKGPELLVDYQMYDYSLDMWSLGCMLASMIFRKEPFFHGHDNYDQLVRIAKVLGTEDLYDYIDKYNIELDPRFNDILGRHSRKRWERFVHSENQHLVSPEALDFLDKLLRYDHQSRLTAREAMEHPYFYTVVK
In words: Biochemical assay for inhibitors of CK2α kinase activity (ADP-Glo). The conditions noted are these: 0.2 nM CK2α, 50 μM peptide substrate, 15 μM ATP, read-out: Assay 1: CK2α Enzyme IC50. The method, then:
The inhibitory activity of putative kinase inhibitors and the potency of selected compounds were determined using ADP-Glo™ assay. The kinase reaction was performed in the presence of excess peptide substrate and ATP at a concentration equivalent to Km. Upon termination of the kinase reaction, remaining ATP was depleted leaving only ADP reaction product, which was converted back to ATP with a coupled luciferin/luciferase reaction. The luminescent output from the coupled reaction was quantified and correlated with the kinase activity. […] Single colonies of the cells were grown in 6×1 L of 2×TY with 100 μg/mL ampicillin at 37° C. […] The cells were incubated overnight at 25° C. then harvested by centrifugation at 4,000 g for 20 minutes. The cell pellets were suspended in 20 mM Tris, 500 mM NaCl, pH 8.0 and lysed using a high pressure homogenizer. Protease inhibitor cocktail tablets (one tablet per 50 mL extract; Roche Diagnostics) and DNase I were then added. The crude cell extract was then centrifuged at 10,000 g for 45 minutes, the supernatant was filtered with a 0.22 μm filter. The soluble supernatant was applied on a Ni Sepharose Fast Flow6 column at pH 8.0, washed and eluted in 20 mM Tris pH 8.0, 500 mM NaCl, 200 mM imidazole. […] The cleaved protein was further purified on a Sepharose Q HP anion-exchange column and the main peak fraction from this column was further purified by gel filtration on a Superdex 75 16/60 HiPrep column equilibrated with Tris 20 mM, pH 8.0, 500 mM NaCl. Pure protein was concentrated to 15 mg/mL and flash frozen in liquid nitrogen. […] The assay was conducted as follows: • 1. […] After 120 minutes, the reaction was stopped by addition of 5 pl ADP-Glo reagent (Promega V9102) and the plate incubated at RT for a further 60 minutes. • 5. 10 μL of Kinase Detection reagent (Promega V9102) was added to assay plate and incubated for a further 30 minutes prior to reading luminescence on an Envision (Perkin-Elmer). Data was analysed to calculate compound IC50and Ki as follows: • 1. […] Percent activity was calculated for each well using: (Test well reading−MEAN100%inhibition control wells)/(MEAN0% inhibition control wells−MEAN100%inhibition control wells). • 5. Morrison Ki was determined using Morrison Ki equation (XL-fit).

For experiment [2], the target named is T2, CLK2 (Homo sapiens, UniProt P49760).
T2 construct: purchased Carna Biosciences 04-127
T2 sequence (P49760 whole entry): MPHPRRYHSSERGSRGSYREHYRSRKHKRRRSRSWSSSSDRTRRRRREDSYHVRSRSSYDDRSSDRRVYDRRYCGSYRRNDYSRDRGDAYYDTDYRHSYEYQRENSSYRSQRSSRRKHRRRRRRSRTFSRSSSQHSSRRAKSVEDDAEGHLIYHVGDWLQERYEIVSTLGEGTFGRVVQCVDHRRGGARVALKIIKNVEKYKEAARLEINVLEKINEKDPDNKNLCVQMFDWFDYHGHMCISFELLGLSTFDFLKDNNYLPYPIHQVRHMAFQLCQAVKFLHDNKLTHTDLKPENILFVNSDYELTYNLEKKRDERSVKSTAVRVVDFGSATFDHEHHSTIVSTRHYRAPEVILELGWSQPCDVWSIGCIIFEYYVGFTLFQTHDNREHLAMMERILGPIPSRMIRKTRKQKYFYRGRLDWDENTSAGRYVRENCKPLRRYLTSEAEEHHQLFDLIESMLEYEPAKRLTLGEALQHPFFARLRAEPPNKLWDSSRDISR
In words: Biochemical assay for inhibitors of CLK2 kinase activity (ADP-Glo). The note with it: 20 nM CLK2, 50 μM peptide substrate, 100 μM ATP, read-out: Assay 2: CLK2 Enzyme IC50. The method, then: The inhibitory activity of putative kinase inhibitors and the potency of selected compounds were determined using ADP-GloTM assay. The kinase reaction was performed in the presence of excess peptide substrate and ATP at a concentration equivalent to Km. Upon termination of the kinase reaction, remaining ATP was depleted leaving only ADP reaction product, which was converted back to ATP with a coupled luciferin/luciferase reaction. The luminescent output from the coupled reaction was quantified and correlated with the kinase activity. […] The assay was conducted as follows: • 1. […] After 120 minutes, the reaction was stopped by addition of 5 pl ADP-Glo reagent (Promega V9102) and the plate incubated at RT for a further 60 minutes. • 5. 10 μL of Kinase Detection reagent (Promega V9102) was added to assay plate and incubated for a further 30 minutes prior to reading luminescence on an Envision (Perkin-Elmer). Data was analysed to calculate compound IC50and Ki as follows: • 1. […] Morrison Ki was determined using Morrison Ki equation (XL-fit).

Experiment [3] addresses T3, intracellular CK2α (Homo sapiens, UniProt P19784).
T3 construct: host or cells: HCT116 (ATCC CCL-247)
In words: Cell-based NanoBRET assay for inhibitor binding to intracellular CK2α. The conditions noted are these: HCT116 cells transiently transfected with CSNK2A2-NanoLuc fusion vector; Tracer K-5; 2 h; read-out: Assay 3: NanoBRET ™ assay for binding to intracellular CK2α. The method, then: This assay used the NanoBRET™ System (Promega), an energy transfer technique designed to measure molecular proximity in living cells. The assay measured the apparent affinity of test compounds by competitive displacement of a NanoBRET™ tracer reversibly bound to a NanoLucR luciferase CK2α fusion protein in cells. A fixed concentration of tracer was added to cells expressing the desired NanoLucR-CK2α fusion protein to generate a BRET reporter complex. […] Donor emission wavelength (450 nm) and acceptor emission wavelength (610 nm or 630 nm) were measured on the Envision (Perkin-Elmer) and BRET ratio calculated for data analysis: BRET Ratio=(Acceptorsample/Donorsample)×1,000. • 7.

T3 sequence (P19784 whole entry): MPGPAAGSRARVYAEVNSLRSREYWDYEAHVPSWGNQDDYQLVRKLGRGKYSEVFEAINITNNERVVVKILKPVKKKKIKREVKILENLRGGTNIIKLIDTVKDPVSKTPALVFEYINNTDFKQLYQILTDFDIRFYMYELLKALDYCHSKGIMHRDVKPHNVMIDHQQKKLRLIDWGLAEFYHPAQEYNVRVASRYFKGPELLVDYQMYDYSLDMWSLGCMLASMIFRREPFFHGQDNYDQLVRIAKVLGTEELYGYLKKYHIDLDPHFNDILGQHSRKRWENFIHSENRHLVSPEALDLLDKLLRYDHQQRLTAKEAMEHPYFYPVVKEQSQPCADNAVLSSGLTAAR

With `FC(F)(F)Oc1ccc(CNCCc2nnc(CCNc3cc(-n4cnnc4)cc4[nH]ncc34)[nH]2)cc1Cl` [Example 16, N-(2-(5-(2-((3-chloro-4-(trifluoromethoxy)benzyl)amino)ethyl)-4H-1,2,4-triazol-3-yl)ethyl)-6-(4H-1,2,4-triazol-4-yl)-1H-indazol-4-amine], the IC50 in experiment [1] turned out to be 14.1 nM; in experiment [2] it was 371 nM; in experiment [3], 3400 nM.
For the molecule `O=C(CNCCCCNCc1ccc(OC(F)(F)F)c(Cl)c1)Nc1cc(-n2cnnc2)cc2[nH]ncc12` [Example 17, N-(6-(4H-1,2,4-triazol-4-yl)-1H-indazol-4-yl)-2-((4-((3-chloro-4-(trifluoromethoxy)benzyl)amino)butyl)amino)acetamide], the IC50 in experiment [1] came to 8.26 nM; in experiment [2], 2780 nM; in experiment [3], 3840 nM.
Turning to `O=C(CCNCc1ccc(OC(F)(F)F)c(Cl)c1)NCCC(=O)Nc1cc(-n2cnnc2)cc2[nH]ncc12` [Example 18, N-(6-(4H-1,2,4-triazol-4-yl)-1H-indazol-4-yl)-3-(3-((3-chloro-4-(trifluoromethoxy)benzyl)amino)propanamido)propanamide], the IC50 in experiment [1] is 2.81 nM; in experiment [2] it was 1620 nM; in experiment [3], 4420 nM.
On to `O=C(CCNCc1ccc(OC(F)(F)F)c(Cl)c1)NCCCOc1cc(-n2cnnc2)cc2[nH]ncc12` [Example 19, N-(3-((6-(4H-1,2,4-triazol-4-yl)-1H-indazol-4-yl)oxy)propyl)-3-((3-chloro-4-(trifluoromethoxy)benzyl)amino)propanamide], for which the IC50 in experiment [1] was 3.13 nM; in experiment [2], 574 nM; in experiment [3], 5070 nM.
Take `CN(CCCNc1cc(-n2cnnc2)cc2[nH]ncc12)C(=O)CCNCc1ccc(OC(F)(F)F)c(Cl)c1` [Example 20, N-(3-((6-(4H-1,2,4-triazol-4-yl)-1H-indazol-4-yl)amino)propyl)-3-((3-chloro-4-(trifluoromethoxy)benzyl)amino)-N-methylpropanamide]: the IC50 in experiment [1] is 23.5 nM; in experiment [2], 158 nM; in experiment [3], 3300 nM.
On the same counts, the results for `Cc1cc(-c2cc(NCCCNC(=O)CCNCc3ccc(-c4ccccc4)c(Cl)c3)c3cn[nH]c3c2)ccn1` [Example 21, 3-(((2-Chloro-[1,1′-biphenyl]-4-yl)methyl)amino)-N-(3-((6-(2-methylpyridin-4-yl)-1H-indazol-4-yl)amino)propyl)propanamide] are 2.93 nM, 446 nM and 346 nM.
Turning to `COc1cc(-c2cc(NCCCNC(=O)CCNCc3ccc(-c4ccccc4)c(Cl)c3)c3cn[nH]c3c2)ccn1` [Example 22, 3-(((2-Chloro-[1,1′-biphenyl]-4-yl)methyl)amino)-N-(3-((6-(2-methoxypyridin-4-yl)-1H-indazol-4-yl)amino)propyl)propanamide], the IC50 was 1.35 nM in experiment [1], 1120 nM in experiment [2] and 363 nM in experiment [3].
On the same counts, the results for `Clc1ccc2nc(CNCCCCOCCNc3cc(-n4cnnc4)cc4[nH]ncc34)[nH]c2c1` [Example 23, N-(2-(4-(((6-chloro-1H-benzo[d]imidazol-2-yl)methyl)amino)butoxy)ethyl)-6-(4H-1,2,4-triazol-4-yl)-1H-indazol-4-amine] are 19.9 nM, 86.1 nM and 17500 nM.
On to `FC(F)(F)Oc1ccc(CNCCCCNCCNc2cc(-n3cnnc3)cc3[nH]ncc23)cc1Cl` [Example 24, N^1-(2-((6-(4H-1,2,4-triazol-4-yl)-1H-indazol-4-yl)amino)ethyl)-N^4-(3-chloro-4-(trifluoromethoxy)benzyl)butane-1,4-diamine], for which the IC50 was 0.78 nM in experiment [1], 344 nM in experiment [2] and 591 nM in experiment [3].
With `O=C(CCNCc1ccc(-c2ccccc2)c(Cl)c1)NCCCNc1cc(-c2cn[nH]n2)cc2[nH]ncc12` [Example 25, N-(3-((6-(2H-1,2,3-triazol-4-yl)-1H-indazol-4-yl)amino)propyl)-3-(((2-chloro-[1,1′-biphenyl]-4-yl)methyl)amino)propanamid], the IC50 worked out at 0.44 nM in experiment [1], 18.2 nM in experiment [2] and 93.6 nM in experiment [3].
`O=C(CCNCc1ccc(-c2ccccc2)c(Cl)c1)NCCCNc1cc(-c2cccnc2)cc2[nH]ncc12` [Example 26, 3-(((2-chloro-[1,1'-biphenyl]-4-yl)methyl)amino)-N-(3-((6-(pyridin-3-yl)-1H-indazol-4-yl)amino)propyl)propanamide]: the results for the IC50 in experiment [1], in experiment [2] and in experiment [3] were 20.4 nM, 4460 nM and 875 nM, respectively.
Take `Cc1n[nH]cc1-c1cc(NCCCNC(=O)CCNCc2ccc(-c3ccccc3)c(Cl)c2)c2cn[nH]c2c1` [Example 27, 3-(((2-chloro-[1,1′-biphenyl]-4-yl)methyl)amino)-N-(3-((6-(3-methyl-1H-pyrazol-4-yl)-1H-indazol-4-yl)amino)propyl)propanamide]: the IC50 is 0.95 nM in experiment [1], 56.4 nM in experiment [2] and 322 nM in experiment [3].
Consider `O=C(CCNCc1ccc(-c2ccccc2)c(Cl)c1)NCCCNc1cc(-c2cnoc2)cc2[nH]ncc12` [Example 28, 3-(((2-chloro-[1,1′-biphenyl]-4-yl)methyl)amino)-N-(3-((6-(isoxazol-4-yl)-1H-indazol-4-yl)amino)propyl)propanamide], for which the IC50 in experiment [1] is 0.54 nM; in experiment [2], 107 nM; in experiment [3], 70.6 nM.
As to `Cc1cn(-c2cc(NCCCNC(=O)CCNCc3ccc(-c4ccccc4)c(Cl)c3)c3cn[nH]c3c2)cn1` [Example 29, 3-(((2-chloro-[1,1′-biphenyl]-4-yl)methyl)amino)-N-(3-((6-(4-methyl-1H-imidazol-1-yl)-1H-indazol-4-yl)amino)propyl)propanamide], the figures for the IC50 in experiment [1], in experiment [2] and in experiment [3] were 22.1 nM, 649 nM and 2090 nM, respectively.
Turning to `O=C(CCNCc1ccc(-c2ccccc2)c(Cl)c1)NCCCNc1cc(-c2cc[n+]([O-])cc2)cc2[nH]ncc12` [Example 30, 4-(4-((3-(3-(((2-chloro-[1,1′-biphenyl]-4-yl)methyl)amino)propanamido)propyl)amino)-1H-indazol-6-yl)pyridine 1-oxide], the IC50 in experiment [1] amounted to 0.99 nM; in experiment [2], 2560 nM; in experiment [3], 816 nM.

(Values after patent publication US20260085062A1, “NOVEL COMPOUNDS AS CK2 INHIBITORS” (Cambridge Enterprise Limited, priority 2022, published 2026).)
